Legend:
[1] = system: adenocarcinoma of the prostate gland; test: Example 9: patient K., adenocarcinoma of the prostate gland, ultrasound, PSA and blood counts; assay type: in vivo, human; set-up: prostate had become smaller by (ultrasound): dose or concentration left out as unconfirmed
Description: An ultrasound test on 8 Aug. […] A PSA test on 8 Aug.
The patient declined an operation and chemotherapy. The patient was treated with the drug. On 9 Aug. […] The treatment lasted 10 days.

[2] = target: T1, Transthyretin (protein) of the blood plasma (Homo sapiens, UniProt P02766); test: Example 3: Transthyretin of the blood plasma in test tube; assay type: biochemical
T1 construct: Transthyretin (protein) of the blood plasma; from tissue; host or cells: blood plasma
Description: Into a test tube (10 ml) with Transthyretin (protein) of the blood plasma (pH=7.0) in a concentration of 0.05 mmol/ml, four drops of 0.1% MCPA aqueous solution were introduced. The test tube was thermostatically controlled at a temperature of 37° C. After 15 minutes, the concentration of Transthyretin and the pH value of the blood plasma were measured. Transthyretin was not found, and the pH value was 6.0.

hepatitis C = test: Example 12: patient N., hepatitis C, hepatargy and ascites, symptoms and blood counts; assay type: in vivo, human; conditions: after 2 weeks (250 mg twice a day)
melanoma-16 = test: Example 8: mice inoculated with melanoma-16; assay type: in vivo; conditions: for surviving mice in which no blastomas were ascertained / surviving mice with blastomas of approximately 0.3×0.2 mm: 36th day, 5 mg as a drink; for mice with isolated pulmonal metastases at dissection: surviving mice killed on the 36th day
[3] = system: cancer cells PC-3 (prostate carcinoma); test: Example 1: mitochondrial membranes of cancer cells PC-3 in test tubes; assay type: cell-based; conditions: PC-3, dilution 10^−5 mmol/l, 24 hours at 37° C.
Description: After thermostatically controlling the aforementioned test tubes in the course of 24 hours at a temperature of 37° C., the contents were analyzed.

[4] = target: T2, β-amyloid (protein) of the blood plasma (Homo sapiens, UniProt P05067); test: Example 4: β-amyloid of the blood plasma in test tube; assay type: biochemical
T2 construct: Into a test tube with β-amyloid (protein) of the blood plasma (pH=7.4); from tissue; host or cells: blood plasma
T2 sequence (P05067 672-711 limits assumed): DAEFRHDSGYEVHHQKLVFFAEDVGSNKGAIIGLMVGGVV
Description: Into a test tube with β-amyloid (protein) of the blood plasma (pH=7.4) with a concentration of 0.1 mmol/ml, three drops of 0.1% sodium salt aqueous solution (called O.F.1) are introduced. The test tube was thermostatically controlled at a temperature of 37° C. After 15 minutes, the protein concentration and the pH value of the blood plasma were measured. The protein concentration amounted to 0.03 mmol/ml, and the pH value amounted to 7.2.

[5] = system: filtrate formed from melanoma 16; test: Example 6: filtrate from melanoma 16 in the polarisation microscope; conditions: filtrate with the preparation; without it the light polarization is slight
Description: A filtrate formed from melanoma 16 (10 ml) was accommodated in a quartz vessel and detected in the polarisation microscope. Thereafter, sodium salt (O.F.1) was introduced into the filtrate, and a repeat detection was carried out in the polarisation microscope.

[6] = system: plasma of the blood of a sarcoma patient; test: Example 5: plasma of a sarcoma patient in the polarisation microscope; conditions: plasma with aqueous solution of the salt; dried plasma without it: light diffusion
Description: The blood of a sarcoma patient (10 ml) was centrifuged. A proportion of plasma was dried and detected in the polarisation microscope. Into the remaining proportion of plasma, an aqueous solution of lithium salt of MCPA acid was introduced, and the mixture was also detected in the polarization microscope.

With `Cc1cc(Cl)ccc1OCC(=O)O` [4-chlorine-2-methyl phenoxyacetic acid] the pains during urination ([1]; 10 days of treatment) was “became less”, the “prostate had become smaller by (ultrasound)” value ([1]; 10 days, before approximately 90 cm^3) was 30% and the “pH value of the blood plasma” value ([2]; after 15 minutes at 37° C., initial pH=7.0) was 6.0. The “concentration of Transthyretin” value ([2]; four drops of 0.1% aqueous solution, 37° C., after 15 minutes, initial 0.05 mmol/ml) was “not found”, the Albumin (hepatitis C; before treatment 2.0) was 4.7 g/dL and the Bilirubin (hepatitis C; before treatment 2.9) was 1.7 mg/dL. It also gave an Aspart aminotransferasis (hepatitis C; before treatment 73.0) of 51.0 units/l, an Alanine aminotransferasis (hepatitis C; before treatment 77.0) of 71.4 units/l and a Gammaglutamyl transferasis (hepatitis C; before treatment 129.0) of 82.0 units/l. For the same molecule, the Lactate dehydrogenasis (hepatitis C; before treatment 543.5) was 335.0 units/l, the “surviving mice in which no blastomas were ascertained” value (melanoma-16) was 3 mice and the “surviving mice with blastomas of approximately 0.3×0.2 mm” value (melanoma-16) was 3 mice. For the same molecule, the “mice died on the 23rd day” value (melanoma-16; single dose of 5 mg as a drink) was 2 mice and the “mice with isolated pulmonal metastases at dissection” value (melanoma-16) was 2 mice.
`COc1cccc2c1C(=O)c1c(O)c3c(c(O)c1C2=O)C[C@@](O)(C(=O)CO)C[C@@H]3O[C@H]1C[C@H](N)[C@H](O)[C@H](C)O1` [Adriamycin, reference compound] was tested, and the “mitochondrial membranes of cancer cells (appearance)” value [3] was “membrane swelling” and the “mice alive on the 36th day of the test” value (melanoma-16; single dose of 5 mg as a drink) was 2 mice.
For `Cc1cc(Cl)ccc1OCC(=O)[O-].[Na+]` [O.F.1], the “pH value of the blood plasma” value ([4]; after 15 minutes at 37° C., initial pH=7.4) was 7.2, the “protein (β-amyloid) concentration” value ([4]; three drops of 0.1% aqueous solution, 37° C., after 15 minutes, initial 0.1 mmol/ml) was 0.03 mmol/mL and the “observation in the polarisation microscope” value [5] was “pronounced polarization”. The “surviving mice in which no blastomas were ascertained” value (melanoma-16) was “one”, the “surviving mice with blastomas of approximately 0.3×0.2 mm” value (melanoma-16) was 8 mice and the “mice died on the 23rd day” value (melanoma-16; single dose of 5 mg as a drink) was “one”. The “mice died on the 26th day” value (melanoma-16; single dose of 5 mg as a drink) was “one”, the “mice died on the 30th day” value (melanoma-16; single dose of 5 mg as a drink) was 1 mice and the “mice with isolated pulmonal metastases at dissection” value (melanoma-16) was 4 mice.
For `Cc1cc(Cl)ccc1OCC(=O)[O-].[Li+]` [lithium salt of MCPA acid], the “observation in the polarisation microscope” value [6] was “double refraction of rays”.
